Measured values from ChEMBL document CHEMBL4152254, “Pyridinyl- and pyridazinyl-3,6-diazabicyclo[3.1.1]heptane-anilines: Novel selective ligands with subnanomolar affinity for α4β2 nACh receptors” (Eur J Med Chem, 2018).
The source made the active and inactive calls. No cut-off for these calls is given here.

Key:
[1] = molecular target: Neuronal acetylcholine receptor; alpha4/beta2 (Rattus norvegicus, UniProt P09483+P12390); assay: Displacement of [3H]epibatidine from alpha4beta2 nAChR in rat cortex membranes; assay type: cell membranes
Neuronal acetylcholine receptor; alpha4/beta2 (Rattus norvegicus, UniProt P09483+P12390), sequence (P09483 whole entry): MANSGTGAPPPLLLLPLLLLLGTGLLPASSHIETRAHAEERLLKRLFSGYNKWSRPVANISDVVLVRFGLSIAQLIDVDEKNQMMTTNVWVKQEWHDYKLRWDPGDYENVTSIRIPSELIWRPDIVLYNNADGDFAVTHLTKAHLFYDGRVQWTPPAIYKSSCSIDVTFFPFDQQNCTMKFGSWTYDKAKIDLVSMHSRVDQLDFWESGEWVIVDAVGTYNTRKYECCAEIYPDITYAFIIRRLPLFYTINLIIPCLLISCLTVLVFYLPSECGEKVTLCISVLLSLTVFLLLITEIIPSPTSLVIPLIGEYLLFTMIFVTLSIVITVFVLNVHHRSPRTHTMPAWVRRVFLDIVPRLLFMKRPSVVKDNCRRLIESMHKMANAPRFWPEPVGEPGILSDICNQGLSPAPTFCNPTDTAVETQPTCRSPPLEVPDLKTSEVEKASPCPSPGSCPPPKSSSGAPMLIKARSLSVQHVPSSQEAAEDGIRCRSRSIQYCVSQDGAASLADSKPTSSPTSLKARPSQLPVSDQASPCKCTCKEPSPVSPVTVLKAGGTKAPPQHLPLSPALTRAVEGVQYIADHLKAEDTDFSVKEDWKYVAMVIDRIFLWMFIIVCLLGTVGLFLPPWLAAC
Neuronal acetylcholine receptor; alpha4/beta2 (Rattus norvegicus, UniProt P09483+P12390), sequence (P12390 whole entry): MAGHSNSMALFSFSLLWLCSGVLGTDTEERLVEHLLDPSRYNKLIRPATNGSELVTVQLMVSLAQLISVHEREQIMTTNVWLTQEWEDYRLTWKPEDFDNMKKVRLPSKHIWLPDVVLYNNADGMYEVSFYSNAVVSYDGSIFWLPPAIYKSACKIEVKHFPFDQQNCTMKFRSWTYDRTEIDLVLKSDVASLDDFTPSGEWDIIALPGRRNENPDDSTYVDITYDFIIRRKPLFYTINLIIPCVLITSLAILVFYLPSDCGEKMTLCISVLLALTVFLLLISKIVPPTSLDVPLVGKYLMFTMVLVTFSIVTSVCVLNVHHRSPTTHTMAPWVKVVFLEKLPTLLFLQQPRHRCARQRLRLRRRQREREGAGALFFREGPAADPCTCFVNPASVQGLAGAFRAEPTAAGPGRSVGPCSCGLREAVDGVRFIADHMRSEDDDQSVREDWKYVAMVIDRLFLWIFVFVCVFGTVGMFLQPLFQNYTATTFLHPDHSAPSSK

[2] = molecular target: Neuronal acetylcholine receptor subunit alpha-7 (Rattus norvegicus, UniProt Q05941); assay: Displacement of [125I]alpha-bungarotoxin from alpha7 nAChR in rat hippocampal membranes; assay type: cell membranes
Neuronal acetylcholine receptor subunit alpha-7, sequence (Q05941 whole entry): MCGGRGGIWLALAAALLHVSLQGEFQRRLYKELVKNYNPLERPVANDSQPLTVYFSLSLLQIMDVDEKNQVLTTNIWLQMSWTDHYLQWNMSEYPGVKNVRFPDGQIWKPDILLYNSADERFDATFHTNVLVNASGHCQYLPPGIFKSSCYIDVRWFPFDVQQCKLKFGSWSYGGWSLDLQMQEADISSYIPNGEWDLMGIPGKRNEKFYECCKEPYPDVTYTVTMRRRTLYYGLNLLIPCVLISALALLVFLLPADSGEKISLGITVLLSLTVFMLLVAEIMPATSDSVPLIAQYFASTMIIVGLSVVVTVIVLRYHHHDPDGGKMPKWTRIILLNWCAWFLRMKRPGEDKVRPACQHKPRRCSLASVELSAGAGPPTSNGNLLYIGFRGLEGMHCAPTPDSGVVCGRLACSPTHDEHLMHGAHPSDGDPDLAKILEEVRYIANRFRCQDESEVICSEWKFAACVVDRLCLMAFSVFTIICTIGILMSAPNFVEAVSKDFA

Rattus norvegicus = species on record: Rattus norvegicus; assay: Selectivity ratio of Ki for alpha7 nAChR in rat hippocampal membranes to Ki for alpha4beta2 nAChR in rat cortex membranes; assay type: cell membranes
[3] = molecular target: T1, Neuronal acetylcholine receptor; alpha3/beta4 (Homo sapiens, UniProt P30926+P32297); assay: Displacement of [3H]epibatidine from human alpha3beta4 nAChR expressed in HEK293 cell membranes
T1 sequence (P30926 whole entry): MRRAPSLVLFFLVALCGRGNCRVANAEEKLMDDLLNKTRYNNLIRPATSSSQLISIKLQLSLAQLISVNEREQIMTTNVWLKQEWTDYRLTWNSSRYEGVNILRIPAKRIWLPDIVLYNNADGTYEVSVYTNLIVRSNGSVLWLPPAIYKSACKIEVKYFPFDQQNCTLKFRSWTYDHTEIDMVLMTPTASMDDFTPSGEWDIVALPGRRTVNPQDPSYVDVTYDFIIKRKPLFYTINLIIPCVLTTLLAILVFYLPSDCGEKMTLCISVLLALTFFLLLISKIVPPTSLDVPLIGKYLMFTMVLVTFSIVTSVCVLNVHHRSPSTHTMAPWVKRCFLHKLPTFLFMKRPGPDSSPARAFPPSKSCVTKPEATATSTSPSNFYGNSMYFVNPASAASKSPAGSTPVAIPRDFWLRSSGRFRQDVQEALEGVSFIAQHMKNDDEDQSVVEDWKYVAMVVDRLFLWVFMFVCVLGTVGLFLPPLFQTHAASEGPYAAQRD
T1 sequence (P32297 whole entry): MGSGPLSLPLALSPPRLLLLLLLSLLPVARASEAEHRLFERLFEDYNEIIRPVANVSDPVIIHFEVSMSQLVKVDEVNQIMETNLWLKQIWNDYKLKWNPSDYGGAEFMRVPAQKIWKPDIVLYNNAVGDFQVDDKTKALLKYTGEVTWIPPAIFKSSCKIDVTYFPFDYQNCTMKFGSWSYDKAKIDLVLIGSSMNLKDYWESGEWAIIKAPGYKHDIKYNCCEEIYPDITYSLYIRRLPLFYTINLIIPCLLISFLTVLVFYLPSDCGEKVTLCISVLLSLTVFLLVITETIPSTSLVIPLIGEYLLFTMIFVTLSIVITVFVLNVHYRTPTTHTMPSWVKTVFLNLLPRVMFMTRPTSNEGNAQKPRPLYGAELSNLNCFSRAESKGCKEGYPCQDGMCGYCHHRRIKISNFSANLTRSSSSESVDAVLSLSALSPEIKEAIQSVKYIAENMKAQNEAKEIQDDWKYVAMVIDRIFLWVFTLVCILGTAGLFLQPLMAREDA

[4] = Selectivity ratio of Ki for human alpha3beta4 nAChR expressed in HEK293 cell membranes to Ki for alpha4beta2 nAChR in rat cortex membranes; assay type: cell-based
[5] = molecular target: Neuronal acetylcholine receptor subunit alpha-7 (Homo sapiens) (UniProt P36544); assay: Agonist activity at human alpha7 nAChR expressed in rat GH4C1 cells assessed as inward channel current amplitude at 100 uM at -70 mV holding potential by whole cell electrophysiology method; assay type: cell-based
Neuronal acetylcholine receptor subunit alpha-7 (Homo sapiens), sequence (P36544 whole entry): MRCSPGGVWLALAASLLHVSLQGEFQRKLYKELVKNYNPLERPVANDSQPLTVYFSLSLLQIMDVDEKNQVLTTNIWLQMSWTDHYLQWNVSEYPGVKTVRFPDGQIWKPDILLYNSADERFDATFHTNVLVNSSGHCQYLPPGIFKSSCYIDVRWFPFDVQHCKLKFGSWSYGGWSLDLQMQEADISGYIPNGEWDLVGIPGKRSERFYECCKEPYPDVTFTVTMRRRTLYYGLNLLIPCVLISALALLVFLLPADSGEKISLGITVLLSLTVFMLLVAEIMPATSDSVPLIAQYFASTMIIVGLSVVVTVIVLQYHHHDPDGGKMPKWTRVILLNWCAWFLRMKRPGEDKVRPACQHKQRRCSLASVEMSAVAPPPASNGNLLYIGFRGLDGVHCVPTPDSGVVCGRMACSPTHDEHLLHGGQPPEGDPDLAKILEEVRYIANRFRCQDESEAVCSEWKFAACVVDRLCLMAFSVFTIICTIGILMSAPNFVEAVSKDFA

[6] = molecular target: T1, Neuronal acetylcholine receptor; alpha3/beta4; assay: Agonist activity at human alpha3beta4 nAChR expressed in rat GH4C1 cells assessed as inward channel current amplitude at -70 mV holding potential by whole cell electrophysiology method; assay type: cell-based
[7] = molecular target: T2, Neuronal acetylcholine receptor; alpha4/beta2 (Homo sapiens, UniProt P17787+P43681); assay: Agonist activity at human alpha4beta2 nAChR expressed in rat GH4C1 cells assessed as inward channel current amplitude at -70 mV holding potential by whole cell electrophysiology method; assay type: cell-based
T2 sequence (P17787 whole entry): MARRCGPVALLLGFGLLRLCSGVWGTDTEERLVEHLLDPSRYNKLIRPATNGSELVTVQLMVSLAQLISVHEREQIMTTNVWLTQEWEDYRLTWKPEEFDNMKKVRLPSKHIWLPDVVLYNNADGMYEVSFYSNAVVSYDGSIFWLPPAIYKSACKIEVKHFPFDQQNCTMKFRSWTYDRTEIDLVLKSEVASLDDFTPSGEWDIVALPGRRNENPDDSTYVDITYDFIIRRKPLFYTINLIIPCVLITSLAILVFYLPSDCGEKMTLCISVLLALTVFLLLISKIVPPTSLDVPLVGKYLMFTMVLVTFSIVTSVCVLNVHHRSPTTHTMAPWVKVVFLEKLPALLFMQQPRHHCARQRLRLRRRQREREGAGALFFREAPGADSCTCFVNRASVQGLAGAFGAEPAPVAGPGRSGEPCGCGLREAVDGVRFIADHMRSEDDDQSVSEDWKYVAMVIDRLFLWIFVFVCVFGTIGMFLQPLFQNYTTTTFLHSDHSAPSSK
T2 sequence (P43681 whole entry): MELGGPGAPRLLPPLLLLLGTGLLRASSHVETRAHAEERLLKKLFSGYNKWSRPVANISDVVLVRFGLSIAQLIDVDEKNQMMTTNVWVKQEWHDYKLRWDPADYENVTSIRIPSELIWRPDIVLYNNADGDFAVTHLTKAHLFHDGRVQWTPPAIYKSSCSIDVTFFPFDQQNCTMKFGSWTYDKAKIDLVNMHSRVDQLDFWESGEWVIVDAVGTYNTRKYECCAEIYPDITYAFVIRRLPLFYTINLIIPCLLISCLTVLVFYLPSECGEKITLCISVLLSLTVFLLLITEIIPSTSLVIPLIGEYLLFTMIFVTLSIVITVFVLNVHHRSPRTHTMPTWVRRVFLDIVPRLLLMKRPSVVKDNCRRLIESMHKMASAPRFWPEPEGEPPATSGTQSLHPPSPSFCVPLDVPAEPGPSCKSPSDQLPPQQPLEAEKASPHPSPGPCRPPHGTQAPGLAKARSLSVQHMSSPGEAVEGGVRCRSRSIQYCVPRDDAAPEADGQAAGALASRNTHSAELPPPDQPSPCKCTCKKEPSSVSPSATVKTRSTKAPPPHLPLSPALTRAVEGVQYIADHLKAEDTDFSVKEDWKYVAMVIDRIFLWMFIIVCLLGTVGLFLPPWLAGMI

[8] = molecular target: T2, Neuronal acetylcholine receptor; alpha4/beta2; assay: Agonist activity at alpha4beta2 nAChR (unknown origin); assay type: protein-complex assay
[9] = molecular target: T1, Neuronal acetylcholine receptor; alpha3/beta4; assay: Agonist activity at human alpha3beta4 nAChR expressed in rat GH4C1 cells assessed as inward channel current amplitude at 100 uM at -70 mV holding potential by whole cell electrophysiology method relative to acetylcholine; assay type: cell-based
[10] = molecular target: T2, Neuronal acetylcholine receptor; alpha4/beta2; assay: Agonist activity at human alpha4beta2 nAChR expressed in rat GH4C1 cells assessed as inward channel current amplitude at 100 uM at -70 mV holding potential by whole cell electrophysiology method relative to acetylcholine; assay type: cell-based

| SMILES | Ki [1] | Ki [2] | Ratio Ki (Rattus norvegicus) | Ki [3] | Ratio Ki [4] | also measured |
| --- | --- | --- | --- | --- | --- | --- |
| c1ccc(Nc2cncc(N3CC4CC(C3)N4)c2)cc1 | 0.0807 nM | 26.9 nM | 333 | 0.799 nM | 10 |  |
| Clc1ccc(Nc2ccc(N3CC4CC(C3)N4)cn2)cc1Cl | 2.3 nM | 2040 nM | 887 | 40.9 nM | 18 |  |
| O=[N+]([O-])c1ccc(Nc2ccc(N3CC4CC(C3)N4)cn2)cc1 | 1.76 nM | 4100 nM | 2330 | 25 nM | 14 | Activity [5]: inactive; EC50 [6]: > 10000 nM; EC50 [7]: > 10000 nM |
| c1cc2c(cc1Nc1ccc(N3CC4CC(C3)N4)cn1)OCO2 | 41 nM | 6150 nM | 150 |  |  |  |
| Clc1ccc(N2CC3CC2CN3)cn1 (centres undefined) |  |  |  |  |  | Ki [8]: 0.018 nM |
| FC(F)(F)c1ccc(Nc2ccc(N3CC4CC(C3)N4)nn2)cc1 | 6.9 nM | 2030 nM | 294 | 115 nM | 17 |  |
| Oc1ccc(Nc2ccc(N3CC4CC(C3)N4)cn2)cc1 | 7.1 nM | 2200 nM | 310 | 165 nM | 23 |  |
| Clc1cccc(Nc2ccc(N3CC4CC(C3)N4)nn2)c1 | 1540 nM | 41800 nM | 27 |  |  |  |
| COc1ccc(Nc2cncc(N3CC4CC(C3)N4)c2)cc1 | 0.0598 nM | 837 nM | 14000 | 2.2 nM | 37 | Activity [5]: inactive; EC50 [6]: 2900 nM; EC50 [7]: 1900 nM; Emax [9]: 42.3%; Emax [10]: 11% |
| O=[N+]([O-])c1ccc(Nc2cncc(N3CC4CC(C3)N4)c2)cc1 | 0.0225 nM | 241 nM | 10700 | 0.684 nM | 30 |  |
| c1ccc(Nc2ccc(N3CC4CC(C3)N4)cn2)cc1 | 2.66 nM | 475 nM | 179 |  |  |  |
| Clc1ccc(Nc2ccc(N3CC4CC(C3)N4)nn2)cc1Cl | 516 nM | 5100 nM | 10 |  |  |  |
| O=[N+]([O-])c1ccc(Nc2ccc(N3CC4CC(C3)N4)nn2)cc1 | 86.2 nM | 6900 nM | 80 |  |  |  |
| c1cncc(N2C[C@@H]3C[C@H]2CN3)c1 |  |  |  |  |  | Ki [8]: 0.15 nM |
| Clc1ccc(Nc2cncc(N3CC4CC(C3)N4)c2)cc1 | 0.118 nM | 116 nM | 983 | 1.2 nM | 10 |  |
| CN(c1ccccc1)c1cncc(N2CC3CC(C2)N3)c1 | 2.06 nM | 317 nM | 154 |  |  |  |
| Fc1ccc(Nc2cncc(N3CC4CC(C3)N4)c2)cc1 | 0.091 nM | 441 nM | 4850 | 1.25 nM | 14 |  |
| Clc1ccc(N2CC3CCC(C2)N3)nn1 |  |  |  |  |  | Ki [8]: 4.1 nM |
| Clc1ccc(Nc2ccc(N3CC4CC(C3)N4)cn2)cc1 | 2.49 nM | 823 nM | 330 |  |  |  |

| SMILES | Ki [1] | Ki [2] | Ratio Ki (Rattus norvegicus) | Ki [3] | Ratio Ki [4] | also measured |
| --- | --- | --- | --- | --- | --- | --- |
| FC(F)(F)c1ccc(Nc2ccc(N3CC4CC(C3)N4)cn2)cc1 | 0.569 nM | 235 nM | 413 | 0.818 nM | 1 |  |
| Oc1ccc(Nc2cncc(N3CC4CC(C3)N4)c2)cc1 | 0.342 nM | 2100 nM | 6140 | 0.988 nM | 3 |  |
| Clc1ccc(N2CC3CCC(C2)N3)cn1 |  |  |  |  |  | Ki [8]: 0.95 nM |
| c1ccc(Nc2ccc(N3CC4CC(C3)N4)nn2)cc1 | 441 nM | 10400 nM | 24 |  |  |  |
| Clc1cccc(Nc2ccc(N3CC4CC(C3)N4)cn2)c1 | 2.2 nM | 3300 nM | 1500 | 4.8 nM | 2 |  |
| Clc1cccc(Nc2cncc(N3CC4CC(C3)N4)c2)c1 | 0.124 nM | 1200 nM | 9680 | 293 nM | 2360 |  |
| Clc1ccc(Nc2ccc(N3CC4CC(C3)N4)nn2)cc1 | 90.4 nM | 17300 nM | 191 |  |  |  |
| c1cncc(N2C[C@H]3C[C@@H]2CN3)c1 |  |  |  |  |  | Ki [8]: 0.02 nM |
| Cc1ccc(Nc2ccc(N3CC4CC(C3)N4)nn2)cc1 | 44.3 nM | 21700 nM | 490 |  |  |  |
| c1cncc(N2CC3CCC(C2)N3)c1 |  |  |  |  |  | Ki [8]: 0.4 nM |
| Cc1ccc(Nc2ccc(N3CC4CC(C3)N4)cn2)cc1 | 52.1 nM | 88800 nM | 1700 |  |  |  |
| CN(c1ccccc1)c1ccc(N2CC3CC(C2)N3)nn1 | 1430 nM | 101000 nM | 71 |  |  |  |
| Cc1ccc(Nc2cncc(N3CC4CC(C3)N4)c2)cc1 | 0.148 nM | 300 nM | 2030 | 1.4 nM | 9 |  |
| COc1ccc(Nc2ccc(N3CC4CC(C3)N4)nn2)cc1 | 578 nM | 50200 nM | 87 |  |  |  |
| Fc1ccc(Nc2ccc(N3CC4CC(C3)N4)nn2)cc1 | 868 nM | 111000 nM | 128 |  |  |  |
| Fc1ccc(Nc2ccc(N3CC4CC(C3)N4)cn2)cc1 | 2.38 nM | 1300 nM | 546 | 13 nM | 5 |  |
| COc1ccc(Nc2ccc(N3CC4CC(C3)N4)cn2)cc1 | 7.3 nM | 3010 nM | 412 | 9.03 nM | 1 |  |
| Clc1ccc(Nc2cncc(N3CC4CC(C3)N4)c2)cc1Cl | 1.25 nM | 1900 nM | 1520 |  |  |  |
| FC(F)(F)c1ccc(Nc2cncc(N3CC4CC(C3)N4)c2)cc1 | 0.373 nM | 186 nM | 499 | 1.02 nM | 3 |  |
